# Test results taken from PubChem BioAssay (NCI).
#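 Five compound concentrations were applied to cells in 96-well plates for 48 hours; endpoints were derived by simple linear interpolation of the resulting dose-response curve. Abbreviation: GI50, concentration required for 50% inhibition of growth. At the TGI there is no net growth.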
# What was measured:
# Assay in all cases: growth of human tumour cells (NCI), 48 h
# [1] = tested on: HCT-116 colon
# [2] = tested on: SF-295 CNS
# [3] = tested on: SK-OV-3 ovarian
# [4] = tested on: 786-0 renal
# [5] = tested on: U251 CNS
# [6] = tested on: RPMI-8226 leukemia
# [7] = tested on: SK-MEL-28 melanoma
# [8] = tested on: MALME-3M melanoma
# [9] = tested on: BT-549 breast
# [10] = tested on: PC-3 prostate
# [11] = tested on: HT29 colon
# [12] = tested on: HOP-92 NSCLC
# [13] = tested on: RXF 393 renal
# [14] = tested on: SR leukemia
# [15] = tested on: EKVX NSCLC
# [16] = tested on: HOP-62 NSCLC
# [17] = tested on: SF-539 CNS
# [18] = tested on: CCRF-CEM leukemia
# [19] = tested on: SN12C renal
# [20] = tested on: HS 578T breast
# [21] = tested on: SK-MEL-5 melanoma
# [22] = tested on: SK-MEL-2 melanoma
# [23] = tested on: SW-620 colon
# [24] = tested on: HCT-15 colon
# [25] = tested on: K-562 leukemia
# [26] = tested on: MOLT-4 leukemia
# [27] = tested on: HCC-2998 colon
# [28] = tested on: KM12 colon
# [29] = tested on: HL-60(TB) leukemia
# [30] = tested on: COLO 205 colon
# [31] = tested on: SF-268 CNS
# [32] = tested on: T-47D breast
# [33] = tested on: NCI-H522 lung
# [34] = tested on: SNB-75 CNS
# [35] = tested on: OVCAR-8 ovarian
# [36] = tested on: NCI-H23 lung
# [37] = tested on: A498 renal
# [38] = tested on: NCI/ADR-RES ovarian
# [39] = tested on: DU-145 prostate
# [40] = tested on: M14 melanoma
# [41] = tested on: CAKI-1 renal
# [42] = tested on: OVCAR-4 ovarian
# [43] = tested on: UACC-257 melanoma
# [44] = tested on: NCI-H226 lung
# [45] = tested on: TK-10 renal
# [46] = tested on: MCF7 breast
# [47] = tested on: IGROV1 ovarian
# [48] = tested on: OVCAR-5 ovarian
# [49] = tested on: SNB-19 CNS
# [50] = tested on: OVCAR-3 ovarian
# [51] = tested on: MDA-MB-231 breast
# [52] = tested on: MDA-MB-435
# [53] = tested on: ACHN renal
# [54] = tested on: UACC-62 melanoma
# [55] = tested on: UO-31 renal
# [56] = tested on: NCI-H460 lung
# [57] = tested on: LOX IMVI melanoma
# [58] = tested on: A549 NSCLC
smiles,measurement,setting,value
C[N+](C)=c1ccc2nc3c(cc(NCCCNc4cc5oc6cc(=[N+](C)C)ccc-6nc5c5ccccc45)c4ccccc43)oc-2c1,GI50,[1],1.95 µM
same,TGI,[1],5.79 µM
same,GI50,[2],4.64 µM
same,TGI,[2],31.8 µM
same,GI50,[3],18.7 µM
same,TGI,[3],42.3 µM
same,GI50,[4],4.66 µM
same,TGI,[4],43.4 µM
same,GI50,[5],2.36 µM
same,TGI,[5],5.87 µM
same,GI50,[6],1.69 µM
same,TGI,[6],13.1 µM
same,GI50,[7],3.77 µM
same,TGI,[7],14.7 µM
same,GI50,[8],2.05 µM
same,TGI,[8],4.45 µM
same,GI50,[9],5.97 µM
same,TGI,[9],> 64.3 µM
same,GI50,[10],1.2 µM
same,TGI,[10],5.64 µM
same,GI50,[11],1.81 µM
same,TGI,[11],6.29 µM
same,GI50,[12],14.7 µM
same,TGI,[12],40.1 µM
same,GI50,[13],6.04 µM
same,TGI,[13],37.5 µM
same,GI50,[14],2.58 µM
same,TGI,[14],> 28.5 µM
same,GI50,[15],4.77 µM
same,TGI,[15],18.5 µM
same,GI50,[16],2.92 µM
same,TGI,[16],13 µM
same,GI50,[17],1.73 µM
same,TGI,[17],3.76 µM
same,GI50,[18],4.39 µM
same,TGI,[18],21.7 µM
same,GI50,[19],2.33 µM
same,TGI,[19],7.39 µM
same,GI50,[20],7.22 µM
same,TGI,[20],45.6 µM
same,GI50,[21],1.41 µM
same,TGI,[21],2.79 µM
same,GI50,[22],15 µM
same,TGI,[22],45.7 µM
same,GI50,[23],1.77 µM
same,TGI,[23],4.02 µM
same,GI50,[24],1.9 µM
same,TGI,[24],6.33 µM
same,GI50,[25],1.57 µM
same,TGI,[25],> 25.5 µM
same,GI50,[26],3 µM
same,TGI,[26],25 µM
same,GI50,[27],1.77 µM
same,TGI,[27],3.47 µM
same,GI50,[28],2.55 µM
same,TGI,[28],8.81 µM
same,GI50,[29],2.56 µM
same,TGI,[29],9.25 µM
same,GI50,[30],1.02 µM
same,TGI,[30],2.45 µM
same,GI50,[31],2.17 µM
same,TGI,[31],9.2 µM
same,GI50,[32],3.12 µM
same,TGI,[32],> 24.2 µM
same,GI50,[33],1.5 µM
same,TGI,[33],4.59 µM
same,GI50,[34],1.56 µM
same,TGI,[34],3.64 µM
same,GI50,[35],1.9 µM
same,TGI,[35],5.85 µM
same,GI50,[36],1.61 µM
same,TGI,[36],5.45 µM
same,GI50,[37],19.1 µM
same,TGI,[37],46.9 µM
same,GI50,[38],6.63 µM
same,TGI,[38],> 100 µM
same,GI50,[39],1.53 µM
same,TGI,[39],2.91 µM
same,GI50,[40],1.63 µM
same,TGI,[40],3.18 µM
same,GI50,[41],12.7 µM
same,TGI,[41],35.4 µM
same,GI50,[42],0.715 µM
same,TGI,[42],2.08 µM
same,GI50,[43],4.34 µM
same,TGI,[43],16.3 µM
same,GI50,[44],22.1 µM
same,TGI,[44],63.7 µM
same,GI50,[45],17.3 µM
same,TGI,[45],39.3 µM
same,GI50,[46],0.885 µM
same,TGI,[46],3.23 µM
same,GI50,[47],1.36 µM
same,TGI,[47],8.67 µM
same,GI50,[48],2.85 µM
same,TGI,[48],10.9 µM
same,GI50,[49],3.6 µM
same,TGI,[49],19.4 µM
same,GI50,[50],0.341 µM
same,TGI,[50],2.33 µM
same,GI50,[51],1.33 µM
same,TGI,[51],4.83 µM
same,GI50,[52],1.76 µM
same,TGI,[52],3.29 µM
same,GI50,[53],2.17 µM
same,TGI,[53],11.3 µM
same,GI50,[54],2.3 µM
same,TGI,[54],6.88 µM
same,GI50,[55],1.75 µM
same,TGI,[55],14 µM
same,GI50,[56],1.89 µM
same,TGI,[56],4.06 µM
COc1cc(NCCCCCN=C(N)NC(N)=NC(C)C)c2ncccc2c1,GI50,[1],0.392 µM
same,TGI,[1],10.5 µM
same,GI50,[2],13 µM
same,TGI,[2],29.2 µM
same,GI50,[3],10.9 µM
same,TGI,[3],23.5 µM
same,GI50,[4],12.2 µM
same,TGI,[4],26.6 µM
same,GI50,[5],1.69 µM
same,TGI,[5],11.8 µM
same,GI50,[6],1.26 µM
same,TGI,[6],20 µM
same,GI50,[7],2.92 µM
same,TGI,[7],10.4 µM
same,GI50,[8],0.43 µM
same,TGI,[8],1.91 µM
same,GI50,[9],2.03 µM
same,TGI,[9],5.61 µM
same,GI50,[10],0.972 µM
same,TGI,[10],13.8 µM
same,GI50,[11],4.44 µM
same,TGI,[11],> 42.3 µM
same,GI50,[12],1.75 µM
same,TGI,[12],9.82 µM
same,GI50,[13],6.03 µM
same,TGI,[13],18.3 µM
same,GI50,[14],2.08 µM
same,TGI,[14],15.8 µM
same,GI50,[15],2.28 µM
same,TGI,[15],18.5 µM
same,GI50,[16],5.14 µM
same,TGI,[16],19.1 µM
same,GI50,[17],2.3 µM
same,TGI,[17],12.8 µM
same,GI50,[18],2.2 µM
same,TGI,[18],17.4 µM
same,GI50,[19],2.32 µM
same,TGI,[19],14.8 µM
same,GI50,[20],2.45 µM
same,TGI,[20],12.7 µM
same,GI50,[21],1.44 µM
same,TGI,[21],3.01 µM
same,GI50,[22],1.95 µM
same,TGI,[22],5.36 µM
same,GI50,[23],0.927 µM
same,TGI,[23],14 µM
same,GI50,[24],34.1 µM
same,TGI,[24],> 100 µM
same,GI50,[57],0.495 µM
same,TGI,[57],2.79 µM
same,GI50,[25],0.607 µM
same,TGI,[25],19.3 µM
same,GI50,[26],0.518 µM
same,TGI,[26],11 µM
same,GI50,[27],0.952 µM
same,TGI,[27],4.96 µM
same,GI50,[28],1.07 µM
same,TGI,[28],3.28 µM
same,GI50,[29],0.575 µM
same,TGI,[29],3.46 µM
same,GI50,[30],0.468 µM
same,TGI,[30],1.74 µM
same,GI50,[31],0.689 µM
same,TGI,[31],13.8 µM
same,GI50,[32],0.302 µM
same,TGI,[32],1.71 µM
same,GI50,[33],1.18 µM
same,TGI,[33],4.58 µM
same,GI50,[34],0.666 µM
same,TGI,[34],4.4 µM
same,GI50,[35],3.08 µM
same,TGI,[35],17.2 µM
same,GI50,[36],0.401 µM
same,TGI,[36],2.3 µM
same,GI50,[37],13.8 µM
same,TGI,[37],28.1 µM
same,GI50,[38],> 100 µM
same,TGI,[38],> 100 µM
same,GI50,[39],10.3 µM
same,TGI,[39],22.3 µM
same,GI50,[40],6.12 µM
same,TGI,[40],20.1 µM
same,GI50,[41],> 73.1 µM
same,TGI,[41],> 100 µM
same,GI50,[42],0.0363 µM
same,TGI,[42],0.633 µM
same,GI50,[43],1.04 µM
same,TGI,[43],4.81 µM
same,GI50,[44],7.52 µM
same,TGI,[44],24.8 µM
same,GI50,[45],6.14 µM
same,TGI,[45],19.9 µM
same,GI50,[46],0.0313 µM
same,TGI,[46],0.16 µM
same,GI50,[58],11.6 µM
same,TGI,[58],26.3 µM
same,GI50,[47],0.228 µM
same,TGI,[47],0.809 µM
same,GI50,[48],6.09 µM
same,TGI,[48],20.2 µM
same,GI50,[49],2.56 µM
same,TGI,[49],12.8 µM
same,GI50,[50],0.217 µM
same,TGI,[50],0.759 µM
same,GI50,[51],0.531 µM
same,TGI,[51],4.47 µM
same,GI50,[52],3.61 µM
same,TGI,[52],14.7 µM
same,GI50,[53],14.8 µM
same,TGI,[53],31.2 µM
same,GI50,[54],2.69 µM
same,TGI,[54],8.96 µM
same,GI50,[55],27.1 µM
same,TGI,[55],> 100 µM
same,GI50,[56],4.49 µM
same,TGI,[56],18.1 µM
